The source of these data is patent US12460265B2, “Post-treatment breast cancer prognosis” (Biotheranostics, Inc., priority 2010, dated 2025).

The test system of one experiment is ER+ breast cancer. Briefly: NCIC CTG MA.17 case-control study: cancer recurrence after 5 years of adjuvant tamoxifen, letrozole vs placebo. It is filed as in vivo, human. To be noted: for Cases (cancer recurrence), number / Cases (cancer recurrence), percent: Letrozole arm. The text has this:
Samples from the NCIC CTG MA.17 cohort (see Goss et al., J. Clin. Oncol., 26(12):1948-1955, 2008) were used. 100 cases with 200 controls were used. The 100 cases included 61 cases of distant cancer recurrence; 17 cases of local cancer recurrence; 5 cases of regional cancer recurrence; 16 cases of contralateral recurrences; and 1 unknown case. Of these, the contralateral and unknown cases were excluded.
Clinical follow-up data were available for the samples used, which were formalin-fixed paraffin-embedded (FFPE) tumor blocks from the time of diagnosis. Odds ratios were calculated with analysis of BCI, H:I, HoxB13 and MGI as continuous and categorical variables. Multivariate analysis also included age, tumor grade and treatment in the analysis. Treatment interaction: age and tumor grade were also included in the analysis. P-values were calculated for the interaction term.
STATISTICAL ANALYSES: Kaplan-Meier analysis with logrank test and Cox proportional hazards regression were performed to assess the association of gene expression indexes with clinical outcome. Multivariate Cox regression models were performed to assess the prognostic capacity of gene expression indexes after adjusting for known prognostic factors.
Proportional hazards (PH) assumption was checked by scaled Schoenfeld residuals; variables violating PH assumption were adjusted for in the model through stratification. To account for the case-cohort design of the Table 1 cohort, we used weighted Kaplan-Meier analysis and Cox regression models with modifications to handle case-cohort designs (see ^19,20 as implemented in the survey package in R (www.r-project.org). To test for interaction between dichotomized MGI and the H:I ratio in Cox regression models, the Wald statistic was used in the Table 1 cohort and likelihood ratio test was used in the last cohort.

The subject of experiment [1] is primary ER+ breast cancer. The conditions noted are these: post-tamoxifen treatment; subjects with primary ER+ breast cancer; cited from earlier work.

For `N#Cc1ccc(C(c2ccc(C#N)cc2)n2cncn2)cc1` [Letrozole, letrozole], in the experiment on ER+ breast cancer (High HoxB13 expression), the “Cases (cancer recurrence), number” value is on record as 17 and the “Cases (cancer recurrence), percent” value is reported as “(28%)”. Also, in the experiment on ER+ breast cancer (Low HoxB13 expression), the “Cases (cancer recurrence), number” value is listed as 14 and the “Cases (cancer recurrence), percent” value is “(23%)”. Further, the “Odds Ratio, Treatment (Placebo vs Letrozole), in relation to cancer recurrence” value in the experiment on ER+ breast cancer (univariate analysis, MA.17 subjects, 95% CI in the next column) is recorded as 2.02. The “breast cancer-free survival and distant breast cancer-free survival” value in experiment [1] was “improves breast cancer-free survival and distant breast cancer-free survival”.
